Patent publication US7238725B2, “Tricyclic compounds useful for the treatment of inflammatory and allergic disorders: process for their preparation and pharmaceutical compositions containing them” (Glenmark Pharmaceuticals Ltd., priority 2002, dated 2007)

target: PDE4 enzyme; experiment: Inhibition of Phosphodiesterase Enzymes (PDE4), [3H]cAMP hydrolysis; assay type: biochemical; details: PDE4 enzyme, 1 μM cAMP and 3H cAMP, 34° C.; read-out: IC50
Procedure: Inhibition of Phosphodiesterase Enzymes (PDE4)
In this assay, PDE4 enzyme converts [^3H] cAMP to the corresponding [^3H] 5′-AMP in proportion to the amount of PDE4 present The [^3H] 5′-AMP then was quantitatively converted to free [^3H] adenosine and phosphate by the action of snake venom 5′-nucleotidase.
The assay was performed with modification of the method of Thompson and Appleman (Biochemistry; 1971; 10; 311-316) and Schwartz and Passoneau (Proc. Natl. Acad. Sci. U.S.A. 1974; 71; 3844-3848), both references incorporated herein by reference in their entirety, at 34° C. In a 200 ul total reaction mixture, the reaction mixture contained 12.5 mM of Tris, 5 mM MgCl2, 1 μM cAMP (cold) and ^3H cAMP (0.1 uCi), (Amersham). […] Drug samples were then added in the reaction mixture (25 μl/tube). The assay was initiated by addition of enzyme mix (75 μl) and the mixture was incubated for 20 minutes at 34° C. The reaction was stopped by boiling the tubes for 2 mins at 100° C. in a water bath. After cooling on ice for 5 minutes and addition of 50 ug/reaction of 5′-nucleotidase snake venom from Crotalus atrox incubation was carried out again for 20 min. at 34° C. The unreacted substrate was separated from (^3H) Adenosine by addition of Dowex AG 1-X8 (Biorad Lab), (400 ul) which was prequilibrated (1:1:1) in water and ethanol. Reaction mixture was then thoroughly mixed, placed on ice for 15 minutes, vortexed and centrifuged at 14,000 r.p.m. for 2 mins. After centrifugation, a sample of the supernatant was taken and added in 24 well optiplates containing Scintillant (1 ml) and mixed well. The samples in the plates were then determined for radioactivity in a Top Counter and the PDE4 activity was estimated. PDE4 enzyme was present in quantities that yield <30% total hydrolysis of substrate (linear assay conditions).
Results were expressed as percent inhibition (IC50) in nM concentrations. The IC50 values were determined from the concentration curves by nonlinear regression analysis.
The IC50 value for the compound examined was determined from concentration-response curves in which varying range of concentrations were considered as shown in table 1

Row | IC50 | SMILES
1 | 0.0789 µM | COc1ccc(C(=O)Nc2c(Cl)cncc2Cl)c2c3cccc(Cl)c3n(Cc3ccc(F)cc3)c12 [Example 95, N4-(3,5dichloro-4pyridyl)-8-chloro-9-(4-Fluorobenzyl)-1-methoxy-9H-4-carbazole carboxamide]
2 | 0.0146 µM | COc1ccc(C(=O)Nc2c(Cl)cncc2Cl)c2c3cc(Cl)ccc3n(Cc3ccc(F)cc3)c12 [Example 84, N4-(3,5-dichloro-4-pyridyl)-6-chloro-9-(4-fluorobenzyl)-1-methoxy-9H-4-carbazole carboxamide]
3 | 0.147 µM | O=C(Nc1ccc[n+]([O-])c1)c1ccc(OC(F)F)c2oc3ccccc3c12 [Example 23, N-(pyrid-3-yl)-4-difluoromethoxy dibenzo[b,d]furan-1-carboxamide-N1-oxide]
4 | 0.128 µM | COc1ccc(C(=O)Nc2ccncc2)c2c1[nH]c1ccccc12 [Example 79, N4-(4-pyridyl)-1-methoxy-9H-4-carbazole carboxamide]
5 | 0.0396 µM | COc1ccc(Cn2c3ccc(Cl)cc3c3c(C(=O)Nc4c(Cl)c[n+]([O-])cc4Cl)ccc(OC)c32)cc1 [Example 98, N4-(3,5-dichloro-4-pyridyl-N-oxide)-6-chloro-9-(4-methoxybenzyl)-1-methoxy-9H-4-carba-zolecarboxamide]
6 | 0.0215 µM | O=C(Nc1c(Cl)cncc1Cl)c1ccc(OC(F)F)c2oc3ccc(N4CCCC4=O)cc3c12 [Example 121, N-(3,5-dichloropyrid-4-yl)-4-difluoromethoxy-8-(pyrrolidine-2-one-1-yl)-dibenzo[b,d]furan-1-carboxamide]
7 | 0.057 µM | CCOc1ccc(C(=O)Nc2c(Cl)c[n+]([O-])cc2Cl)c2c1oc1ccccc12 [Example 68, 3,5-Dichloro-4-(4-ethoxydibenzo[b,d]furan-1-ylcarboxamido)pyridine-N-oxide]
8 | 0.00868 µM | COc1ccc(C(=O)Nc2ccncc2)c2c1oc1ccccc12 [Example 3, N-(pyrid-4-yl)-4-methoxy dibenzo[b,d]furan-1-carboxamide]
9 | 0.0226 µM | O=C(Nc1cc[n+]([O-])cc1)c1ccc(OC(F)F)c2oc3ccccc3c12 [Example 21, N-(pyrid-4-yl)-4-difluoromethoxy dibenzo[b,d]furan-1-carboxamide-N1-oxide]
10 | 0.129 µM | COc1ccc(C(=O)Nc2c(Cl)cncc2Cl)c2c3ccccc3n(Cc3ccccc3)c12 [Example 88, N4-(3,5-dichloro-4-pyridyl)-9-benzyl-1-methoxy-9H-4-carbazolecarboxamide]
11 | 0.0301 µM | COc1ccc(C(=O)Nc2c(Cl)c[n+]([O-])cc2Cl)c2c3cc(Cl)ccc3n(CC3CCCCC3)c12 [Example 99, N4-(3,5-dichloro-4-pyridyl-N-oxide)-6-chloro-9-cyclohexylmethyl-1-methoxy-9-H-4-carbazolecarboxamide]
12 | 0.0864 µM | CCOc1ccc(C(=O)Nc2c(Cl)cncc2Cl)c2c1oc1ccccc12 [Example 60, 3,5-Dichloro-4-(4-ethoxydibenzo[b,d]furan-1-ylcarboxamido)pyridine]
13 | 0.00815 µM | COc1ccc(Cn2c3ccc(Cl)cc3c3c(C(=O)Nc4c(Cl)cncc4Cl)ccc(OC)c32)cc1 [Example 85, N4-(3,5-dichloro-4-pyridyl)-6-chloro-9-(4-methoxybenzyl)-1-methoxy-9H-4-carbazolecarboxamide]
14 | 0.281 µM | COc1ccc(C(=O)Nc2c(Cl)cncc2Cl)c2c3cccc(Cl)c3n(CC3CCCCC3)c12 [Example 94, N4-(3,5dichloro-4-pyridyl)-8-chloro-9-cyclohexylmethyl-1-methoxy-9H-4-carbazole carboxamide]
15 | 0.00526 µM | COc1ccc(C(=O)Nc2c(Cl)cncc2Cl)c2c3cc(Cl)ccc3n(CC3CCCCC3)c12 [Example 83, N4-(3,5-dichloro-4-pyridyl)-6-chloro-9-cyclohexylmethyl-1-methoxy-9H-4-carbazole carboxamide]
16 | 0.0368 µM | COc1ccc(C(=O)Nc2ccncc2)c2c1oc1ccc(I)cc12 [Example 46, N-(pyrid-4-yl)-4-methoxy-8-iodo-dibenzo[b,d]furan-1-carboxamide]
17 | 0.0612 µM | COc1ccc(C(=O)Nc2ccncc2)c2c1oc1ccc(Br)cc12 [Example 43, N-(pyrid-4-yl)-4-methoxy-8-bromo-dibenzo[b,d]furan-1-carboxamide]
18 | 0.0317 µM | COc1ccc(C(=O)Nc2ccncc2)c2c1oc1ccc([N+](=O)[O-])cc12 [Example 39, N-(pyrid-4-yl)-4-methoxy-8-nitro dibenzo[b,d]furan-1-carboxamide]
19 | 0.0403 µM | COc1ccc(C(=O)Nc2c(Cl)c[n+]([O-])cc2Cl)c2c3cc(Cl)ccc3n(Cc3ccc(F)cc3)c12 [Example 97, N4-(3,5-dichloro-4-pyridyl-N-oxide)-6-chloro-9-(4-fluorobenzyl)-1-methoxy-9H-4-carbazolecarboxamide]
20 | 0.0673 µM | O=C(Nc1cc[n+]([O-])cc1)c1ccc(OC(F)F)c2oc3ccc(C(F)(F)F)cc3c12 [Example 15, N-(pyrid-4-yl)-4-difluoromethoxy-8-trifluoromethyl dibenzo[b,d]furan-1-carboxamide-N1-oxide]
21 | 0.072 µM | COc1ccc(C(=O)Nc2c(Cl)cncc2Cl)c2c3ccccc3n(Cc3ccc(F)cc3)c12 [Example 86, N4-(3,5-dichloro-4-pyridyl)-9-(4-fluorobenzyl)-1-methoxy-9H-4-carbazole carboxamide]
22 | 0.393 µM | COc1ccc(C(=O)Nc2ccncc2)c2c3ccccc3n(Cc3ccc(F)cc3)c12 [Example 87, N4-(4-pyridyl)-9-(4-fluorobenzyl)-1-methoxy-9H-4-carbazole carboxamide]
23 | 0.0196 µM | COc1ccc(C(=O)Nc2c(Cl)cncc2Cl)c2c3cc(Cl)ccc3n(Cc3ccccc3)c12 [Example 82, N4-(3,5-dichloro-4-pyridyl)-9-benzyl-6-chloro-1-methoxy-9H-4-carbazole carboxamide]
24 | 0.0158 µM | O=C(Nc1ccncc1)c1ccc(OC(F)F)c2oc3ccccc3c12 [Example 20, N-(pyrid-4-yl)-4-difluoromethoxy dibenzo[b,d]furan-1-carboxamide]
25 | 0.351 µM | O=C(Nc1cccnc1)c1ccc(OCC2CC2)c2oc3ccccc3c12 [Example 29, N-(pyrid-3-yl)-4-cyclopropylmethoxy dibenzo[b,d]furan-1-carboxamide]
26 | 0.0736 µM | O=C(Nc1ccncc1)c1ccc(OCC2CC2)c2oc3ccccc3c12 [Example 27, N-(pyrid-4-yl)-4-cyclopropylmethoxy dibenzo[b,d]furan-1-carboxamide]
27 | 0.0374 µM | COc1ccc(NS(=O)(=O)c2ccc(OC)c3sc4ccc(S(=O)(=O)N(C)C)cc4c23)cc1 [Example 115, N1-(4-methoxyphenyl)-8,N8-dimethyl-4-methoxydibenzo[b,d]thiophen-8,1-disulfonamide]
28 | 0.105 µM | O=C(Nc1cccnc1)c1ccc(OC(F)F)c2oc3ccccc3c12 [Example 22, N-(pyrid-3-yl)-4-difluoromethoxy dibenzo[b,d]furan-1-carboxamide]
29 | 0.161 µM | COc1ccc(C(=O)Nc2ccncc2)c2c3cc(Cl)ccc3n(Cc3ccc(F)cc3)c12 [Example 93, N4-(4-pyridyl)-6-chloro-9-(4-fluorobenzyl)-1-methoxy-9H -4-carbazolecarboxamide]

test system: not given; experiment: not given; details: not given

Row | melting point | SMILES
30 | 201 to 205 °C | COc1ccc(S(=O)(=O)Nc2c(Cl)cccc2Cl)c2c1[nH]c1ccccc12 [Example 77, N4-(2,6-Dichlorophenyl)-1-methoxy-9H-4-carbazolsulphonamide]
